Assay [1] deals with A2780 ovarian cells. Nature of the assay: A2780 ovarian cell proliferation assay in lipid reduced medium, with palmitate (MTT). In kind it is cell-based. The settings on record: Homo sapiens, A2780, 96 h; read-out: pIC50 A2780 Ovarian Cell, With Palmitate (converted). Put shortly: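 In this palmitate-supplemented format, compound dilutions (30 μM down to 0.01 μM) are added to cells in lipid-reduced serum with 25 μM palmitate, 0.2% fatty-acid-free BSA and 0.25% ethanol. After four days (96 h) MTT absorbance at 544 nm is recorded and fitted by minimum sum of squares.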

Assay [2] deals with PC-3M-Luc-C6 prostate cells. Nature of the assay: In vitro PC-3M-Luc-C6 prostate cell proliferation assay in lipid reduced medium. In kind it is cell-based. Particulars: 96 h, read-out: pIC50 PC-3M-Luc-C6 prostate cell (converted).
For assay [3], the system named is LNCaP-Vancouver prostate cells. Nature of the assay: In vitro LNCaP Vancouver prostate cell proliferation assay in lipid reduced medium. In kind it is cell-based. Particulars: read-out: pIC50 LNCaP_Vancouver prostate cell (converted).
The target in assay [4] is Fatty Acid Synthase Keto-reductase Domain (FASN KR) (Homo sapiens, UniProt P49327). Nature of the assay: Fatty Acid Synthase keto-reductase domain (FASN KR) inhibition, NADPH oxidation at 340 nm.
Chain of Fatty Acid Synthase Keto-reductase Domain (FASN KR) (P49327 whole entry, the tested form may be a part): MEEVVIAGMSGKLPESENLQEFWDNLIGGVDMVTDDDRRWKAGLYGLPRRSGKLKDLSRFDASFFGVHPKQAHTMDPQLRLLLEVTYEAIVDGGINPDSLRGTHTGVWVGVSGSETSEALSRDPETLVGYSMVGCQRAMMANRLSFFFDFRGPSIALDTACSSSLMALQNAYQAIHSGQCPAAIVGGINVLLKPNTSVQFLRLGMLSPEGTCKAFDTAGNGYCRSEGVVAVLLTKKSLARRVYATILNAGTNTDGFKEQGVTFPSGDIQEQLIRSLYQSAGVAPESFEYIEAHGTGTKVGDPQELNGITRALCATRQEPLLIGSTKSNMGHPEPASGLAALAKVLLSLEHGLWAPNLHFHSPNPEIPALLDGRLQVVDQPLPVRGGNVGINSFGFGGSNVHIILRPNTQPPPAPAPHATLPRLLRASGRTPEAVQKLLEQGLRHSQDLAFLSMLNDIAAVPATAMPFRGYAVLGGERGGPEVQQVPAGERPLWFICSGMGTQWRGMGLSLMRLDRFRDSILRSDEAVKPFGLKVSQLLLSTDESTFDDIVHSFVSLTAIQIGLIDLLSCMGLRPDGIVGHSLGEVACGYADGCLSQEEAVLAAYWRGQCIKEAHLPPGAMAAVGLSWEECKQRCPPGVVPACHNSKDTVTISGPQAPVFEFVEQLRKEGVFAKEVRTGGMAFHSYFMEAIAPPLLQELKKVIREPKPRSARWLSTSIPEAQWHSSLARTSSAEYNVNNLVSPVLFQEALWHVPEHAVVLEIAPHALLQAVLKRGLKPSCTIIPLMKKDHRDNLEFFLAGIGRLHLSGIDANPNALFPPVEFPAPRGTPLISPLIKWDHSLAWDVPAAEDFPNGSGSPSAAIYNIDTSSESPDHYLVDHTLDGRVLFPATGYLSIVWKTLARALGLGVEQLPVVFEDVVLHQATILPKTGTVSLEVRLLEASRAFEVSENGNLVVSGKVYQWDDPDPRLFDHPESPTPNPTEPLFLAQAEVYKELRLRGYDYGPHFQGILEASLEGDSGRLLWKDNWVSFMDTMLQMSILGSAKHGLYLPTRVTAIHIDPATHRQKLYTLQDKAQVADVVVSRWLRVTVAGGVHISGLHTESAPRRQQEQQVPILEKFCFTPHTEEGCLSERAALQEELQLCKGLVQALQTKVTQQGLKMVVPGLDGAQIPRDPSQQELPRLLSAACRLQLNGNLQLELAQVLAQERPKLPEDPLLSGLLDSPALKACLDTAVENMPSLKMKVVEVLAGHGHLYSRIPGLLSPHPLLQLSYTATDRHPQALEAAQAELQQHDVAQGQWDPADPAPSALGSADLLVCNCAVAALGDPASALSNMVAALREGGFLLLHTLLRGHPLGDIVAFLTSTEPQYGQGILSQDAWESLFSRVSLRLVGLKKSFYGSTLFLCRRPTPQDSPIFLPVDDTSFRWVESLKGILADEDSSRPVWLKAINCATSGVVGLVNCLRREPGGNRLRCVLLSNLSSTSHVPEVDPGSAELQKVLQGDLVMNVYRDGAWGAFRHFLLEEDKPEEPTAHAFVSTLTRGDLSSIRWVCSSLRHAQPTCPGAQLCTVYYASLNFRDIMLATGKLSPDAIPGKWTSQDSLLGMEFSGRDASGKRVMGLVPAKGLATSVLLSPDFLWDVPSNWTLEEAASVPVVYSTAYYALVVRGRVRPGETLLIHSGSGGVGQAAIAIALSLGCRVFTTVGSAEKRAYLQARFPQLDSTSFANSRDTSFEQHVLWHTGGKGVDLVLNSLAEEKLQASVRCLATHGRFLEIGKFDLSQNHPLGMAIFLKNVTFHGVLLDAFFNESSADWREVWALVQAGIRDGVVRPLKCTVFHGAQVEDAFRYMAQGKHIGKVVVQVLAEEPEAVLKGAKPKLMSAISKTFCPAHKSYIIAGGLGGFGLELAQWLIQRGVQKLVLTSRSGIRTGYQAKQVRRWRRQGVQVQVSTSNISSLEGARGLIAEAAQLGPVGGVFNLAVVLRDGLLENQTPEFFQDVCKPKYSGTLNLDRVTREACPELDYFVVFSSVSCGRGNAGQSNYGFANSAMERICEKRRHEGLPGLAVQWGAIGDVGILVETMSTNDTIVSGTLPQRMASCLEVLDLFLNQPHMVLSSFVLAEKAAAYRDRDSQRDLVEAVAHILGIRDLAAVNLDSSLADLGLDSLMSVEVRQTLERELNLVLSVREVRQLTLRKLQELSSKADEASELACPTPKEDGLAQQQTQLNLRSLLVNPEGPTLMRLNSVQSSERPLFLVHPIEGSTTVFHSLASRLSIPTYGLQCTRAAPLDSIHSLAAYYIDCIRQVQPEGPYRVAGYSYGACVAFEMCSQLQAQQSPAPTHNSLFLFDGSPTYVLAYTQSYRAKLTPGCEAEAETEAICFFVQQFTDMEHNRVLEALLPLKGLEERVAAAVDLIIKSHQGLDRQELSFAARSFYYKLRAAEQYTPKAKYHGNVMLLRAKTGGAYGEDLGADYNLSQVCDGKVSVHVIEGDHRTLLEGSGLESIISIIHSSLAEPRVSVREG
Method: After 20 minutes incubation at room temperature the plate was measured again (T2).
The decrease in absorbance was calculated as (Absorbance before incubation T1)−(Absorbance following incubation T2).
A plot of Controlmin versus test compound concentration was fitted to a 4-parameter logistic curve using a non-linear least squares regression method.
Assay [5] has as its system A2780 ovarian cells. Nature of the assay: A2780 ovarian cell proliferation assay in lipid reduced medium, without palmitate (MTT). The settings on record: Homo sapiens, A2780, 96 h; read-out: pIC50 A2780 Ovarian Cell, Without Palmitate (converted). In kind it is cell-based.
Assay [6] has as its target T1, hFASN enzyme (full length) (Homo sapiens, UniProt P49327).
T1 construct: 10 μL hFASN enzyme (full length, 300 ng, purified in house); made in house
Nature of the assay: Fatty Acid Synthase (FASN) inhibition scintillation proximity assay. In kind it is biochemical. Particulars: for inhibition at 10 µM: read-out: Human FASN % inhibition @ 10 μM, 10 μM test compound; for IC50: read-out: Human FASN pIC50 (converted). Put shortly:
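Scintillation proximity format: in-house full-length enzyme, 300 ng per well, pH 7.5 phosphate/DTT buffer, ³H-acetyl-CoA and malonyl-CoA. Emission counted on LEADseeker at 610 nm at least 24 h after stopping.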
Background: SPA uses beads or plates that emit light when radiolabelled molecules are held near them.

The text below walks through data of patent US10077261B2, “Imidazolin-5-one derivative useful as FASN inhibitors for the treatment of cancer” (Janssen Pharmaceutica NV, priority 2012, dated 2018).

Where only a bound is given, the exact number is not on record here.

T1 sequence (P49327 whole entry): as the sequence (P49327 whole entry, the tested form may be a part) above

`Cc1cc(-c2ccc3oc(C)c(C)c3c2)ccc1C1=NC2(CC2)C(=O)N1CC1CN(C(=O)C2CC2)C1` [compound 398, 6-{[1-(Cyclopropylcarbonyl)azetidin-3-yl]methyl}-5-[4-(2,3-dimethyl-1-benzofuran-5-yl)-2-methylphenyl]-4,6-diazaspiro[2.4]hept-4-en-7-one]: the IC50 in the assay on A2780 ovarian cells [1] is over 10000 nM; in assay [2], 1740 nM; in assay [3], 2340 nM; in assay [4], 955 nM; with A2780 ovarian cells [5], about 2290 nM; in assay [6], 263 nM. In addition, the inhibition at 10 µM in assay [6] stood at 102%.
Turning to `Cc1oc2ccc(-c3ccc(C4=NC5(CC5)C(=O)N4C[C@@H]4CCN(C(=O)C5CC5)C4)cc3F)cc2c1C` [compound 399, 6-{[(3R)-1-(Cyclopropylcarbonyl)pyrrolidin-3-yl]methyl}-5-[4-(2,3-dimethyl-1-benzofuran-5-yl)-3-fluorophenyl]-4,6-diazaspiro[2.4]hept-4-en-7-one], the IC50 with A2780 ovarian cells [1] was over 6170 nM; in assay [2], over 3020 nM; in assay [3], over 3020 nM; in assay [4], 1320 nM; in the assay with A2780 ovarian cells [5], over 6170 nM; in assay [6], 363 nM. In assay [6], the inhibition at 10 µM amounted to 99%.
Regarding `Nc1cccc(-c2ccc(C3=NC4(CC4)C(=O)N3C[C@@H]3CCN(C(=O)C4CC4)C3)cc2)n1` [compound 400, 5-[4-(6-Aminopyridin-2-yl)phenyl]-6-{[(3R)-1-(cyclopropylcarbonyl)pyrrolidin-3-yl]methyl}-4,6-diazaspiro[2.4]hept-4-en-7-one], the IC50 with A2780 ovarian cells [1] is over 6170 nM; in assay [2], 214 nM; in assay [3], 1200 nM; in assay [4], 479 nM; in the assay with A2780 ovarian cells [5] it was 229 nM; in assay [6] it was 195 nM. Also, in assay [6], the inhibition at 10 µM was found to be 101%.
On to `O=C(C1CC1)N1CC[C@@H](CN2C(=O)C3(CC3)N=C2c2ccc(-c3ccc4[nH]ccc4c3)nc2)C1` [compound 402, 6-{[(3R)-1-(Cyclopropylcarbonyl)pyrrolidin-3-yl]methyl}-5-[6-(1H-indol-5-yl)pyridin-3-yl]-4,6-diazaspiro[2.4]hept-4-en-7-one], for which the IC50 in the assay with A2780 ovarian cells [1] was over 10000 nM; in assay [2], 174 nM; in assay [3], 1740 nM; in assay [4] it was 302 nM; in the assay with A2780 ovarian cells [5], 174 nM; in assay [6], 138 nM. The inhibition at 10 µM in assay [6] was 102%.
Turning to `Cn1cc(-c2ccc(-c3ccc(C4=NC5(CC5)C(=O)N4C[C@H]4CCN(C(=O)C5CC5)C4)cc3)cc2)cn1` [compound 411, 6-{[(3S)-1-(Cyclopropylcarbonyl)pyrrolidin-3-yl]methyl}-5-[4′-(1-methyl-1H-pyrazol-4-yl)biphenyl-4-yl]-4,6-diazaspiro[2.4]hept-4-en-7-one], the IC50 with A2780 ovarian cells [1] is over 10000 nM; in assay [2] it was 162 nM; in assay [3], 525 nM; in assay [4], 427 nM; with A2780 ovarian cells [5], 126 nM; in assay [6], 158 nM. In addition, the inhibition at 10 µM in assay [6] worked out at 100%.
Consider `O=C(C1CC1)N1CC[C@H](CN2C(=O)C3(CC3)N=C2c2ccc(-c3ccc(-c4cccc(Cl)c4)cc3)cc2)C1` [compound 412, 5-(3″-Chloro-1,1′:4′,1″-terphenyl-4-yl)-6-{[(3S)-1-(cyclopropylcarbonyl)pyrrolidin-3-yl]methyl}-4,6-diazaspiro[2.4]hept-4-en-7-one], for which the IC50 with A2780 ovarian cells [1] was over 10000 nM; in assay [2], 575 nM; in assay [3] it was 457 nM; in assay [4] it was 427 nM; with A2780 ovarian cells [5] it was 1620 nM; in assay [6] it was 324 nM. For the same compound, the inhibition at 10 µM in assay [6] is 96%.
Regarding `Cc1ccc(-c2ccc(-c3ccc(C4=NC5(CC5)C(=O)N4C[C@H]4CCN(C(=O)C5CC5)C4)cc3)cc2)cc1` [compound 413, 6-{[(3S)-1-(Cyclopropylcarbonyl)pyrrolidin-3-yl]methyl}-5-(4″-methyl-1,1′:4′,1″-terphenyl-4-yl)-4,6-diazaspiro[2.4]hept-4-en-7-one], the IC50 in the assay on A2780 ovarian cells [1] was 7240 nM; in assay [2], 479 nM; in assay [3] it was 447 nM; in assay [4], 891 nM; in the assay with A2780 ovarian cells [5], about 676 nM; in assay [6], 302 nM. For the same compound, in assay [6], the inhibition at 10 µM amounted to 91%.
For the compound `O=C(C1CC1)N1CC[C@@H](CN2C(=O)C3(CC3)N=C2c2ccc(-c3ccc4[nH]ncc4c3)c(F)c2)C1` [compound 414, 6-{[(3R)-1-(Cyclopropylcarbonyl)pyrrolidin-3-yl]methyl}-5-[3-fluoro-4-(1H-indazol-5-yl)phenyl]-4,6-diazaspiro[2.4]hept-4-en-7-one], the IC50 in the assay with A2780 ovarian cells [1] was over 10000 nM; in assay [2], 178 nM; in assay [3] it was 1150 nM; in assay [4], 295 nM; in the assay on A2780 ovarian cells [5], about 200 nM; in assay [6] it was 135 nM. The inhibition at 10 µM in assay [6] is 101%.
For `Cc1sc2ccc(-c3ccc(C4=NC5(CC5)C(=O)N4CC4CN(C(=O)C5CC5)C4)cc3)cc2c1C` [compound 418, 6-{[1-(Cyclopropylcarbonyl)azetidin-3-yl]methyl}-5-[4-(2,3-dimethyl-1-benzothiophen-5-yl)phenyl]-4,6-diazaspiro[2.4]hept-4-en-7-one], the IC50 with A2780 ovarian cells [1] is over 10000 nM; in assay [2], 1580 nM; in assay [3], about 2510 nM; in assay [4], 302 nM; in the assay with A2780 ovarian cells [5] it was about 2140 nM; in assay [6], 151 nM. In assay [6], the inhibition at 10 µM amounted to 103%.
For `O=C(C1CC1)N1CC[C@@H](CN2C(=O)C3(CC3)N=C2c2ccc(-c3ccc4occc4c3)nc2)C1` [compound 420, 5-[6-(1-Benzofuran-5-yl)pyridin-3-yl]-6-{[(3R)-1-(cyclopropylcarbonyl)pyrrolidin-3-yl]methyl}-4,6-diazaspiro[2.4]hept-4-en-7-one], the IC50 was over 10000 nM in the assay with A2780 ovarian cells [1]; 1660 nM in assay [2]; 6460 nM in assay [3]; 977 nM in assay [4]; about 2090 nM in the assay on A2780 ovarian cells [5]; 490 nM in assay [6]. In assay [6], the inhibition at 10 µM amounted to 92%.
Take `Cn1ncc2cc(-c3ccc(C4=NC5(CC5)C(=O)N4C[C@@H]4CCN(C(=O)C5CC5)C4)cn3)ccc21` [compound 421, 6-{[(3R)-1-(Cyclopropylcarbonyl)pyrrolidin-3-yl]methyl}-5-[6-(1-methyl-1H-indazol-5-yl)pyridin-3-yl]-4,6-diazaspiro[2.4]hept-4-en-7-one]: the IC50 with A2780 ovarian cells [1] was over 10000 nM; in assay [2] it was 1050 nM; in assay [3], 1290 nM; in assay [4] it was 1780 nM; in the assay on A2780 ovarian cells [5] it was 1150 nM. Moreover, in assay [6] (hFASN enzyme full length, scintillation proximity assay, "~" = standard error of pIC50 larger than 0.5), the “Human FASN pIC50” value was determined as 6.34. The inhibition at 10 µM in assay [6] amounted to 94%.
In the case of `O=C(C1CC1)N1CC[C@@H](CN2C(=O)C3(CC3)N=C2c2ccc(-c3ccc4[nH]ccc4c3)s2)C1` [compound 423, 6-{[(3R)-1-(Cyclopropylcarbonyl)pyrrolidin-3-yl]methyl}-5-[5-(1H-indol-5-yl)thiophen-2-yl]-4,6-diazaspiro[2.4]hept-4-en-7-one], the IC50 is over 10000 nM with A2780 ovarian cells [1]; 1350 nM in assay [2]; 2570 nM in assay [3]; 550 nM in assay [4]; 1290 nM with A2780 ovarian cells [5]; 316 nM in assay [6]. In addition, in assay [6], the inhibition at 10 µM came to 90%.
On to `O=C(C1CC1)N1CC[C@@H](CN2C(=O)C3(CC3)N=C2c2ccc(-c3ccc4sccc4c3)s2)C1` [compound 425, 5-[5-(1-Benzothiophen-5-yl)thiophen-2-yl]-6-{[(3R)-1-(cyclopropylcarbonyl)pyrrolidin-3-yl]methyl}-4,6-diazaspiro[2.4]hept-4-en-7-one], for which the IC50 with A2780 ovarian cells [1] was over 10000 nM; in assay [2], 2190 nM; in assay [3], 3160 nM; in assay [4], 646 nM; in the assay on A2780 ovarian cells [5], about 6920 nM; in assay [6] it was 275 nM. In addition, in assay [6], the inhibition at 10 µM came to 93%.
Regarding `O=C(C1CC1)N1CC[C@@H](CN2C(=O)C3(CC3)N=C2c2ccc(-c3ccc4c(c3)N=CC4)s2)C1` [compound 426, 6-{[(3R)-1-(Cyclopropylcarbonyl)pyrrolidin-3-yl]methyl}-5-[5-(3H-indol-6-yl)thiophen-2-yl]-4,6-diazaspiro[2.4]hept-4-en-7-one], the IC50 in the assay with A2780 ovarian cells [1] is over 10000 nM; in assay [2] it was 1740 nM; in assay [3], 2340 nM; in assay [4], 708 nM; in the assay on A2780 ovarian cells [5], 2340 nM; in assay [6], 347 nM. Moreover, the inhibition at 10 µM in assay [6] is 94%.

By inhibition is commonly meant the relative decrease from the control value, in per cent.
